Assay results as given in patent publication US12551471B2, “ABT-751 and ionizing radiation” (Stichting Het Nederlands Kanker Instituut-Antoni van …, priority 2020, dated 2026).
Entries after “also recorded” stand apart in the source; their conditions may differ.

Key:
[1] = test system: cancer cell lines of various origins (brain, colorectal, prostate, head & neck and cervical cancer); assay: Flow cytometric cell cycle analysis (propidium iodide and phospho-histone H3 staining); assay type: cell-based
Method: We first studied whether ABT-751 increases the mitotic population of cancer cell lines (FIG. 1). Several lines of various origins—brain, colorectal, prostate, head & neck and cervical cancer—were exposed to a dose range of ABT-751 and incubated for 6 hours, after which the cell cycle was analyzed by flow cytometry. […] This analysis confirmed that ABT-751 dose-dependently increases the mitotic population of cancer cell lines at the expense of the relatively radio-resistant G1 population. […] This shift in cell cycle distribution will hereafter be referred to as induction of mitotic enrichment. […] Importantly, the G2 phase of the cell cycle is unaffected. […] In the first set-up, we irradiated cells prior to exposure to ABT-751 (FIG. 5A). In the second approach, we irradiated cells prematurely after only 1 hour of exposure to ABT-751 while maintaining the total exposure time of ABT-751 at 6 hours (FIG. 5B).

[2] = test system: various cancer cell lines; assay: Cell survival assay; assay type: cell-based; conditions: 1 μM ABT-751, up to 10 hours of exposure
Description: Importantly, induction of mitotic enrichment could be achieved without inducing cytotoxicity.

[3] = test system: tumor cells from various origins; assay: Clonogenic assays with ionizing radiation (radiosensitization); assay type: cell-based
Method: Using clonogenic assays, we confirmed that induction of mitotic enrichment by ABT-751 radiosensitizes tumor cells from various origins. To achieve induction of mitotic enrichment, we exposed cells to 1 μM of ABT-751 for 6 hours, at which time we exposed cells to a dose range of ionizing radiation (FIG. 4A). Directly after irradiation, we washed ABT-751 away and waited for 18 hours before the process was repeated. In total, the process of induction of mitotic enrichment and subsequent irradiation was repeated 4 times to resemble a clinical hyperfractionation schedule. After the last fraction, cells were left to grow out into viable colonies and clonogenic potential was quantified. […] In the first set-up, we irradiated cells prior to exposure to ABT-751 (FIG. 5A). In the second approach, we irradiated cells prematurely after only 1 hour of exposure to ABT-751 while maintaining the total exposure time of ABT-751 at 6 hours (FIG. 5B).

[4] = Plasma and brain concentration after oral administration (LC-MS/MS); assay type: in vivo; conditions: mice, oral 50 mg/kg
Method: In order to facilitate the in vivo translation of the radiosensitization approach, we first established the dose level that achieved clinically relevant plasma concentrations in mice. Using a validate LC-MS/MS method, we measured the plasma concentration—time curve in mice following oral administration of 50 mg/kg ABT-751 in formulation containing DMSO:Cremophor EL:H2O (1:1:8).

[5] = test system: GSC457 brain cancer cells; assay: Mitotic enrichment (p-H3 immunohistochemistry) in orthotopic GSC457 brain tumors; assay type: in vivo, mice
Method: To study the pharmacokinetic-pharmacodynamic relationship of ABT-751 in vivo, we made use of a genetically engineered mouse model-derived brain cancer model that was previously established in our lab. We implanted these GSC457 brain cancer cells in the brains of recipient mice and followed up their growth using bioluminescence imaging. When full-blown tumors had established, we treated tumor-bearing mice with different doses of ABT-751 and collected their brains 6 hours or 24 hours after administration. […] We next aimed to confirm whether repeated induction of mitotic enrichment was feasible and efficient in vivo. Using the same murine brain cancer model as described above, we quantified the number of mitotic cells in tumors 6 hours after administration of one dose of 50 mg/kg of ABT-751 and compared the levels to those in tumors 6 hours after receiving a second administration of 50 mg/kg of ABT-751 either 24 or 48 hours after the first administration. We again confirmed that mitotic enrichment can efficiently be induced by ABT-751 in brain cancer in vivo (FIG. 8). […] In the clinic, the standard-of-care for glioblastoma—the most common and aggressive adult brain cancer—involves ionizing radiation and concomitant alkylating chemotherapy using temozolomide. Therefore, we next confirmed that induction of mitotic enrichment in vivo using ABT-751 is compatible with chemo-radiotherapy.

[6] = test system: GSC457 tumors; assay: Radiosensitization efficacy study, orthotopic GSC457 tumors; assay type: in vivo, mice; conditions: 4 weeks
Method: The first model is described above and was also used to study the […] relationship in FIGS. 7-9. Mice bearing these GSC457 tumors were stratified between 5 treatment arms: • 1. Control treatment, • 2. 50 mg/kg daily ABT-751 for 4 days/week for 4 consecutive weeks • 3. 4 Gy of ionizing radiotherapy (RT) for 4 days/week for 4 consecutive weeks • 4. ABT-751 given 6 hours prior to RT for 4 days/week for 4 consecutive weeks • 5. RT administered prior to ABT-751 for 4 days/week for 4 consecutive weeks
(§1) The growth of these tumors could be followed up using bioluminescence imaging.

[7] = test system: U87 human brain cancer cell line; assay: Radiosensitization efficacy study, orthotopic U87 model; assay type: in vivo, mice
Description: This U87 model is more intrinsically radiosensitive and was therefore irradiated with fractions of 1 Gy instead of 4 Gy as used above.

[8] = test system: GBM8 tumors; assay: Radiosensitization efficacy study, orthotopic GBM8 model; assay type: in vivo, mice
Method: Mice bearing these GBM8 tumors were stratified between 5 treatment arms: • 1. Control treatment, • 2. 100 mg/kg daily ABT-751 for 4 days/week for 6 consecutive weeks • 3. 4 […] Gy of ionizing radiotherapy (RT) for 4 days/week for 6 consecutive weeks • 4. ABT-751 given 6 hours prior to RT for 4 days/week for 6 consecutive weeks • 5. RT administered prior to ABT-751 for 4 days/week for 6 consecutive weeks
as §1

[9] = Animal weights throughout efficacy studies; assay type: in vivo; conditions: mice bearing orthotopic GSC457, U87 or GBM8 tumors
Description: Finally, to investigate whether the mitotic enrichment strategy using ABT-751 induced toxicity in healthy tissues we studied several parameters.

[10] = test system: GSC457 tumors and healthy surrounding brain tissue; assay: Immunohistochemistry for DNA damage and apoptosis markers, on-treatment samples, orthotopic GSC457 tumors; assay type: in vivo, mice; conditions: ABT-751 prior to radiotherapy
[11] = cells irradiated prior to exposure to ABT-751
[12] = dose range of ABT-751, incubated for 6 hours
[13] = two brain cancer cell lines, 1 μM for up to 8 hours, washed away, followed until 48 hours
[14] = ABT-751 6 hours prior to RT, versus radiotherapy
[15] = ABT-751 alone, 100 mg/kg daily, 4 days/week, 6 weeks
[16] = healthy surrounding brain tissue

For `COc1ccc(S(=O)(=O)Nc2cccnc2Nc2ccc(O)cc2)cc1` [ABT-751, N-[2-(4-hydroxyanilino)-3-pyridinyl]-4-methoxybenzenesulfonamide], the mitotic enrichment [1, 11] was “could not induce mitotic enrichment when cells were irradiated prior to exposure”, the “G1 cells (DNA 2N, pHH3-)” value [1, 12] was “at the expense of G1 cells” and the “S phase cells (DNA 2N-4N, pHH3-)” value [1, 12] was “stay unaffected”. For the same compound, the “amount of G2 cells (DNA 4N, pHH3-)” value [1, 12] was “appears to increase slightly”, the “percentage of mitotic cells (DNA 4N, pHH3+)” value [1, 12] was “dose-dependently increases the percentage of mitotic cells” and the “G2 phase of the cell cycle” value [1, 13] was “unaffected”. The “mitotic population over time and after wash-out (reversibility)” value [1, 13] was “induces a time-dependent increase of the mitotic population that reverts back to pre-exposure levels after the drug is removed”, the “concentration at which maximum achievable mitotic enrichment was achieved” value ([1]; within 6 hours, all cell lines tested) was 1 µM and the “viability (cytotoxicity)” value [2] was “No loss of viability was observed up to 10 hours of exposure”. For the same compound, the “clonogenic potential (radiosensitization)” value (shortened to “clonogenic potential”) ([3]; 1 μM ABT-751 for 6 hours before ionizing radiation, repeated 4 times) was “radiosensitizes cancer cells of various origins”, the “clonogenic potential” value ([3]; cells irradiated after only 1 hour of exposure, total exposure 6 hours) was “In neither of the sequences radiosensitizing effects of ABT-751 were observed” and the “clonogenic potential” value [3, 11] was “In neither of the sequences radiosensitizing effects of ABT-751 were observed”. For the same compound, the “concentration in the brain” value ([4]; 8 hours after administration, 50 mg/kg) was “still in the range of the concentration that is sufficient to induce mitotic enrichment in vitro; also recorded: supersede the concentration required to achieve mitotic enrichment in vitro for up to 8 hours”, the plasma concentration ([4]; DMSO:Cremophor EL:H2O (1:1:8)) was “in the range of those achieved in patients at a clinically safe dose levels for up to 8 hours” and the mitotic population ([5]; all doses, 24 hours after administration) was “reverted to baseline levels”. For the same compound, the “mitotic enrichment in brain tumors (p-H3 staining)” value ([5]; different doses, brains collected 6 hours after administration) was “dose-dependently induced mitotic enrichment in brain tumors in vivo”, the mitotic enrichment ([5]; given concomitantly with chemo-radiotherapy involving temozolomide) was “can induce mitotic enrichment” and the mitotic enrichment ([5]; given concomitantly with radiotherapy alone) was “can induce mitotic enrichment”. For the same compound, the “doses achieving the most clear increases in mitotic enrichment” value ([5]; p-H3 staining, GSC457 tumors) was ≥ 50 mg/kg, the “repeated induction of mitotic enrichment” value ([5]; second 50 mg/kg dose 24 or 48 hours after the first, 6 hours after administration) was “feasible without loss of efficiency when a waiting period of 24 hours or longer is observed between subsequent doses” and the “effect of RT on tumor growth and mouse survival” value ([6]; 50 mg/kg ABT-751 6 hours prior to 4 Gy RT, 4 days/week) was “could be enhanced by given ABT-751 6 hours prior to every fraction of radiotherapy”. The radiosensitizing effect ([6]; RT administered prior to ABT-751, 4 days/week) was “a similar radiosensitizing effect could not be observed”, the survival benefit ([7]; ABT-751 6 hours prior to RT, fractions of 1 Gy) was “doubled the survival benefit that was achieved by RT alone” and the survival benefit ([7]; ABT-751 administered after RT) was “did not achieve a survival benefit”. The survival [8, 14] was “extended survival”, the tumor growth [8, 14] was “further slowed down tumor growth” and the “efficacy (tumor growth, survival)” value ([8]; ABT-751 administered after radiotherapy) was “Increased efficacy could not be observed”. The survival [8, 15] was “did not affect”, the tumor growth [8, 15] was “did not affect tumor growth” and the weight of mice [9] was “no treatment-related weight loss”. For the same compound, the “DNA damage (yH2A.X)” value [10, 16] was “did not increase DNA damage (yH2A.X)”, the “apoptosis (cleaved-Caspase 3)” value [10, 16] was “did not increase” and the apoptosis ([10]; in the tumor, compared to radiotherapy alone) was “did strongly increase apoptosis specifically in the tumor compared to radiotherapy alone”.
